Assay results reported in patent publication US20240109863A1, “2-PYRIDONE DERIVATIVE, AND PREPARATION METHOD THEREFOR AND PHARMACEUTICAL APPLICATION THEREOF” (KPC PHARMACEUTICALS, INC, priority 2020, published 2024).

Experiments:
[1] = preclinical toxicology and data of phase I; cited from earlier work
[2] = data of phase II, cited from earlier work
THRβ = target: T1, THRβ (Homo sapiens, UniProt P10828); assay: THRβ binding assay (time-resolved FRET coactivator peptide recruitment); type: biochemical; details: THRβ-LBD/RXRα, SRC2-2 coactivator peptide recruitment, 4 hours at room temperature
T1 construct: RXRα and THRβ-LBD Eu-anti-GST antibody with GST tag
Procedure: Experimental methods: In vitro analysis of the agonistic effect of compounds on THRβ was performed using time-resolved fluorescence resonance energy transfer coactivator peptide recruitment assays. The assay used biotin-SRC2-2 coactivator peptide, streptavidin-d2, RXRα and THRβ-LBD Eu-anti-GST antibody with GST tag. Eu-anti-GST antibody indirectly labeled THRβ-LBD by binding to the GST tag. Streptavidin-d2 indirectly labeled the SRC2-2 coactivator peptide by binding to the biotin tag. In the presence of RXRα, THRβ-LBD can form heterodimer THRβ-LBD/RXRα with it. […] According to the effect of different concentrations of the compound on the activity of THRβ, the agonistic ability of the compound can be evaluated.
The detailed procedure is as follows: • a. 100× reference compound or compound was prepared with DMSO, and equally diluted by 1:3. • b. 100× gradiently diluted reference compound or compound was diluted with 1× reaction buffer to 4×, which was then added to an assay plate. • c. A mixed solution of 4× THRβ-LBD and 4× RXRα was prepared with 1× reaction buffer, and added to the assay plate. • d. A mixed solution of 2× biotin-SRC2-2, 2× Eu-anti-GST, and 2× streptavidin-d2 was prepared with 1× reaction buffer, and added to the assay plate. • e. The assay plate was centrifuged at 1000 rpm for 1 min, and incubated at room temperature in the dark for 4 hours. • f.

THRα = target: T2, THRα (Homo sapiens, UniProt P10827); assay: THRα binding assay (as the THRβ assay, THRβ replaced with THRα); type: biochemical; details: for EC50: THRα in place of THRβ; for THRα/β selectivity (fold): ratio of THRα EC50 to THRβ EC50
T2 construct: GST

[3] = In vivo pharmacokinetics in mice; details: male ICR mice, intragastric, single dose 3 mg/Kg; for Area of curve / half-life: plasma; for half-life: mouse, po
Procedure: Mice were used as test animals, and intragastrically administered with the compounds of Example 1 and Example 46, and then the drug concentrations in plasma at different time points were measured. The pharmacokinetic performance of the compounds of the present invention in mice was studied, and the drug metabolism characteristics were evaluated. In the example, healthy adult male ICR mice with similar body weight were selected, and orally administered with drugs once at a dose of 3.0 mg/kg. Whole blood was collected before the administration and 1 h, 2 h, 4 h, 6 h, 8 h, 12 h, 24 h and 48 h after the administration, respectively. LC/MS/MS method was established to determine the concentrations of prototype drugs in plasma samples. The main pharmacokinetic parameters were calculated using WinNonlin 6.3 NCA model.
Experimental drug: the compounds obtained in Example 1 and Example 46.
Experimental animals: 9 healthy adult male ICR mice, equally divided into 3 groups, 3 mice in each group, purchased from Shanghai Xipu'er-Bikai Experimental Animal Co., Ltd., with an animal certificate number: SOCK (Shanghai) 2018-0006 2018 0006 010467.
Preparation of drug: A certain amount of the compounds of Example 1 and Example 46 were accurately weighed, put into a 15 ml sample tube, wetted by 5 μL of Tween 80, and then added with 5.2 mL of 2% hydroxypropyl methylcellulose (HPMC) solution. The mixture was sonicated and mixed by vortex to obtain a homogeneous suspension. The drugs were freshly prepared just before use.
Administration: After fasting overnight, ICR mice were intragastrically administered with the drugs at a dose of 3.0 mg/kg.
Operation: The mice were intragastrically administered with the compounds of Example 1 and Example 46. Whole blood was collected before the administration and 1 h, 2 h, 4 h, 6 h, 8 h, 12 h, 24 h and 48 h after the administration, then anticoagulated with heparin sodium, and centrifuged at 4° C. for 5 min. Plasma was separated, and stored at −80° C. for determination.
Determination of the contents of the compounds to be tested in the mice plasma after intragastric administration of drugs: 12.5 μL of the mice plasma to be tested at each time point after the administration of the compounds of Example 1 and Example 46 were taken respectively, mixed in pairs, and added with 100 μL of the internal standard solution and 125 μL of methanol. The mixture was mixed by vortex for 2 min, and centrifuged at 13000 rpm for 10 min at 4° C. The supernatant was taken for LC-MS/MS analysis.

T2 sequence (P10827 1-410 isoform P10827-2, other chains not shown): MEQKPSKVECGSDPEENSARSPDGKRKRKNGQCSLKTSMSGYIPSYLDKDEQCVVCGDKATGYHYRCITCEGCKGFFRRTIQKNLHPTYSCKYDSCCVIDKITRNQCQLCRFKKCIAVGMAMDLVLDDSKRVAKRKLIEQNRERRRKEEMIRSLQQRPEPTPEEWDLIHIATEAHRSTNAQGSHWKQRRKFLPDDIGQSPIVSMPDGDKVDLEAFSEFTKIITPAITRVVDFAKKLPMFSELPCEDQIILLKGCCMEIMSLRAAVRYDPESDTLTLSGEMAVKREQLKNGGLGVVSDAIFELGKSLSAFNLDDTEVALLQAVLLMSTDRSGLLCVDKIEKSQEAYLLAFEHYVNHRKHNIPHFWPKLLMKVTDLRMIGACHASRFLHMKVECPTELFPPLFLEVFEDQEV
T2 sequence (P19793 whole entry partner, other chains not shown): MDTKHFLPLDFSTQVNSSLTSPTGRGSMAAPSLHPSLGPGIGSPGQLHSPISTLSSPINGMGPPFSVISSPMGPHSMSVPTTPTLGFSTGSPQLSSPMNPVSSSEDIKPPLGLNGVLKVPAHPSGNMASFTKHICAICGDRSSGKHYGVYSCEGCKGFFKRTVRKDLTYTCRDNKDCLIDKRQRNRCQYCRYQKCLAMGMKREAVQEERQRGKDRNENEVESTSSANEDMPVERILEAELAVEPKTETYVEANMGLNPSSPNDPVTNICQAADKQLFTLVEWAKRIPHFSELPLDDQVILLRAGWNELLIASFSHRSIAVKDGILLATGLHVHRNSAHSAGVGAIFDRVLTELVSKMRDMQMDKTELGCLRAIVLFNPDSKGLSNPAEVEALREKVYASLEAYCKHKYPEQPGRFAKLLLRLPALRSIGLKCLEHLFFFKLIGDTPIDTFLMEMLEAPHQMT
T1 sequence (P10828 217-461 limits assumed, other chains not shown): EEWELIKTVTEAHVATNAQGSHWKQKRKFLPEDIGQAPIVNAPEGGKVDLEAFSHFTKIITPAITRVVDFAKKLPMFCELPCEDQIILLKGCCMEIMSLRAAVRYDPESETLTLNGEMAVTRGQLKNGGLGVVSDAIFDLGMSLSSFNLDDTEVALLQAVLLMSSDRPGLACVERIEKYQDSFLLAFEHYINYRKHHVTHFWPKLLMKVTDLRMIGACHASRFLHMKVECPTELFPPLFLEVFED
T1 sequence (P19793 whole entry partner, other chains not shown, the tested form may be a part): as the sequence (P19793 whole entry partner, other chains not shown) above

Row | EC50 (THRβ) [nM] | EC50 (THRα) [nM] | THRα/β selectivity (fold) (THRα) | Peak plasma concentration [3] [ng/mL] | Area of curve [3] [ng·h/mL] | half-life [3] [h] | Structure (SMILES) | LDL cholesterol, triglycerides and lipoproteins [1] | severe cases ([2]; not related to treatment) | adverse effects (AEs) mild [2] [%] | adverse effects (AEs) moderate [2] [%]
1 | – | – | – | – | – | – | CC(C)c1cc(Oc2c(Cl)cc(-n3nc(C#N)c(=O)[nH]c3=O)cc2Cl)n[nH]c1=O [Control compound 2, MGL-3196] | significantly reduce | 3 | 85 | 15
2 | 11 | 49 | 4.5 | 54.0 | 535.2 | 5.6 | CC(C)n1cc(Oc2c(Cl)cc(-n3nc(C#N)c(=O)[nH]c3=O)cc2Cl)ccc1=O [Example 1, 2-(3,5-Dichloro-4-((1-isopropyl-6-oxo-1,6-dihydropyridin-3-yl)oxy)phenyl)-3,5-dioxo-2,3,4,5-tetrahydro-1,2,4-triazine-6-carbonitrile] | – | – | – | –
3 | 102 | 930 | 9.1 | 92.37 | 1774.03 | 11.2 | CC1CCc2c(Oc3c(Cl)cc(-n4nc(C#N)c(=O)[nH]c4=O)cc3Cl)ccc(=O)n21 (stereo not shown) [Example 46, 2-(3,5-dichloro-4-((3-methyl-5-oxo-1,2,3,5-tetrahydroindoline-8-yl)oxy)phenyl)-3,5-dioxo-2,3,4,5-tetrahydro-1,2,4-triazine-6-carbonitrile] | – | – | – | –
